Measurements taken from patent US20240294542A1, “NLRP3 INFLAMMASOME INHIBITOR AND APPLICATION THEREOF” (TransThera Sciences (Nanjing), Inc., priority 2021, published 2024).

tested on: NLRP3 inflammasomes; test: Inhibitory activity against NLRP3 inflammasome in THP-1 cells (LPS/nigericin stimulation, IL-1β ELISA); format: cell-based; conditions: PMA-differentiated THP-1 cells; LPS 500 ng/mL 3 h, compound 1 h, nigericin 10 μg/mL 30 min; human IL-1β in supernatant by Elisa; read-out: IC50 (nM), inhibitory activities against NLRP3 in THP-1 cells
Experimental: Test Samples: The compounds of the present invention prepared according to exemplary methods.
THP-1 is Immortalized Human Macrophage Cell Line
• Test instrument: microplate reader (made from PE)
• 1. […] Culture plate coating: 100 μL polylysine solution was added into a 96-well cell culture plate, and the reaction was carried out at 37° C. for 30 min. The solution was discarded, and PBS was washed twice for later use. • 3. […] The resulting mixture was uniformly mixed, and finally diluted by 1:1000 times, and the cells were placed in a carbon dioxide cell incubator at 37° C. and cultured for 1 h. • c. Nigericin was added to each well at a final concentration of 10 μg/mL, and the plate was placed in a carbon dioxide cell incubator at 37° C. and cultured for 30 min. • d. The media in wells were transferred to a new culture plate, and then the plate was centrifuged at 3000 rpm for 5 min. Then the supernatant was transferred to a new 96-well plate. • e. The collected cell culture supernatant samples were tested for the content of human IL-1β by using a commercial Elisa kit, as specified in the instructions.

| Structure (SMILES) | IC50 |
| --- | --- |
| Cc1ccc(-c2nnc(N[C@@H]3CCCN(C)C3)c3ccccc23)c(O)c1 [Compound 1, (R)-5-methyl-2-(4-((1-methylpiperidin-3-yl)amino)phthalazin-1-yl)phenol] | 1.8 nM |
| Cc1ccc(-c2nnc(N[C@@H]3CCCN(C)C3)c3c2CCCC3)c(O)c1 [Compound 1a, (R)-5-methyl-2-(4-((1-methylpiperidin-3-yl)amino)-5,6,7,8-tetrahydrophthalazin-1-yl)phenol] | 7 nM |
| CN1CCC[C@@H](Nc2nnc(-c3ccc(C#N)cc3O)c3c2CCCC3)C1 [Compound 2a, (R)-3-hydroxy-4-(4-((1-methylpiperidin-3-yl)amino)-5,6,7,8-tetrahydrophthalazin-1-yl)benzonitrile] | 3 nM |
| Cc1ccc(-c2nnc(N[C@@H]3CCCN(C)C3)c3ccc(C)cc23)c(O)c1 [Compound 3, (R)-5-methyl-2-(7-methyl-4-((1-methylpiperidin-3-yl)amino)phthalazin-1-yl)phenol] | 24 nM |
| Cc1ccc(-c2nnc(N[C@@H]3CCCN(C)C3)c3c2CCC3)c(O)c1 [Compound 3a, (R)-5-methyl-2-(4-((1-methylpiperidin-3-yl)amino)-6,7-dihydro-5H-cyclopenta[d]pyridazin-1-yl)phenol] | 4 nM |
| Cc1ccc(-c2nnc(N[C@@H]3CCCN(C)C3)c3cc(C)ccc23)c(O)c1 [Compound 4, (R)-5-methyl-2-(6-methyl-4-((1-methylpiperidin-3-yl)amino)phthalazin-1-yl)phenol] | 9 nM |
| Cc1ccc(-c2nnc(N[C@@H]3CCCN(C)C3)c3c(C)cccc23)c(O)c1 [Compound 5, (R)-5-methyl-2-(5-methyl-4-((1-methylpiperidin-3-yl)amino)phthalazin-1-yl)phenol] | 14 nM |
| CN1CCC[C@@H](Nc2nnc(-c3ccc(C4CC4)cc3O)c3c2CCCC3)C1 [Compound 5a, (R)-5-cyclopropyl-2-(4-((1-methylpiperidin-3-yl)amino)-5,6,7,8-tetrahydrophthalazin-1-yl)phenol] | 5 nM |
| Cc1ccc(-c2nnc(N[C@@H]3CCCN(C)C3)c3cccc(F)c23)c(O)c1 [Compound 6, (R)-2-(8-fluoro-4-((1-methylpiperidin-3-yl)amino)phthalazin-1-yl)-5-methylphenol] | 11 nM |
| Cc1ccc(-c2nnc(N[C@@H]3CCCN(C)C3)c3c2C2CCC3CC2)c(O)c1 [Compound 6a, (R)-5-methyl-2-(4-((1-methylpiperidin-3-yl)amino)-5,6,7,8-tetrahydro-5,8-ethanophthalazin-1-yl)phenol] | 1 nM |
| Cc1ccc(-c2nnc(N[C@@H]3CCCN(C)C3)c3cc(F)ccc23)c(O)c1 [Compound 8, (R)-2-(6-fluoro-4-((1-methylpiperidin-3-yl)amino)phthalazin-1-yl)-5-methylphenol] | 3 nM |
| Cc1ccc(-c2nnc(N[C@@H]3CCCN(C)C3)c3c(F)cccc23)c(O)c1 [Compound 9, (R)-2-(5-fluoro-4-((1-methylpiperidin-3-yl)amino)phthalazin-1-yl)-5-methylphenol] | 3 nM |
| Cc1ccc(-c2nnc(N[C@@H]3CCCN(C)C3)c3cc(Cl)ccc23)c(O)c1 [Compound 12, (R)-2-(6-chloro-4-((1-methylpiperidin-3-yl)amino)phthalazin-1-yl)-5-methylphenol] | 4 nM |
| CN1CCC[C@@H](Nc2nnc(-c3ccc(C(F)F)cc3O)c3c2CCCC3)C1 [Compound 15a, (R)-5-(difluoromethyl)-2-(4-((1-methylpiperidin-3-yl)amino)-5,6,7,8-tetrahydrophthalazin-1-yl)phenol] | 2 nM |
| COc1ccc2c(-c3ccc(C)cc3O)nnc(N[C@@H]3CCCN(C)C3)c2c1 [Compound 16, (R)-2-(6-methoxy-4-((1-methylpiperidin-3-yl)amino)phthalazin-1-yl)-5-methylphenol] | 7 nM |
| Cc1ccc(-c2nnc(N[C@@H]3CCCN(C)C3)c3cc(C#N)ccc23)c(O)c1 [Compound 20, (R)-1-(2-hydroxy-4-methylphenyl)-4-((1-methylpiperidin-3-yl)amino)phthalazine-6-carbonitrile] | 12 nM |
| N#Cc1ccc(-c2nnc(N[C@@H]3CCCN(C4CC4)C3)c3c2CCCC3)c(O)c1 [Compound 21a, (R)-4-(4-((1-cyclopropylpiperidin-3-yl)amino)-5,6,7,8-tetrahydrophthalazin-1-yl)-3-hydroxybenzonitrile] | 14 nM |
| COc1ccc(-c2nnc(N[C@@H]3CCCN(C)C3)c3c2CCCC3)c(O)c1 [Compound 23a, (R)-5-methoxy-2-(4-((1-methylpiperidin-3-yl)amino)-5,6,7,8-tetrahydrophthalazin-1-yl)phenol] | 6 nM |
| Cc1ccc(-c2nnc(N[C@@H]3CCCN(C)C3)c3cc(C(F)(F)F)ccc23)c(O)c1 [Compound 24, (R)-5-methyl-2-(4-((1-methylpiperidin-3-yl)amino)-6-(trifluoromethyl)phthalazin-1-yl)phenol] | 14 nM |

| Structure (SMILES) | IC50 |
| --- | --- |
| CN1CCC[C@@H](Nc2nnc(-c3ccc(F)cc3O)c3c2CCCC3)C1 [Compound 24a, (R)-5-fluoro-2-(4-((1-methylpiperidin-3-yl)amino)-5,6,7,8-tetrahydrophthalazin-1-yl)phenol] | 1 nM |
| Cc1ccc(-c2nnc(N[C@@H]3CCCN(C)C3)c3c2CCCCC3)c(O)c1 [Compound 26a, (R)-5-methyl-2-(4-((1-methylpiperidin-3-yl)amino)-6,7,8,9-tetrahydro-5H-cyclohepta[d]pyridazin-1-yl)phenol] | 4 nM |
| Cc1ccc(-c2nnc(N[C@@H]3CCCN(C)C3)c3c2CCCC3)c(O)c1F [Compound 29a, (R)-2-fluoro-3-methyl-6-(4-((1-methylpiperidin-3-yl)amino)-5,6,7,8-tetrahydrophthalazin-1-yl)phenol] | 1 nM |
| CN1CCC[C@@H](Nc2nnc(-c3ccc(F)c(F)c3O)c3c2CCCC3)C1 [Compound 31a, (R)-2,3-difluoro-6-(4-((1-methylpiperidin-3-yl)amino)-5,6,7,8-tetrahydrophthalazin-1-yl)phenol] | 6 nM |
| Cc1ccc(-c2nnc(N[C@@H]3CCCN(C)C3)c3cc(C4CC4)ccc23)c(O)c1 [Compound 32, (R)-2-(6-cyclopropyl-4-((1-methylpiperidin-3-yl)amino)phthalazin-1-yl)-5-methylphenol] | 15 nM |
| C[C@]1(O)C[C@@H](Nc2nnc(-c3ccc(C(F)(F)F)cc3O)c3c2CCCC3)C1 [Compound 32a, 2-(4-(((cis)-3-hydroxy-3-methylcyclobutyl)amino)-5,6,7,8-tetrahydrophthalazin-1-yl)-5-(trifluoromethyl)phenol] | 7 nM |
| Cc1ccc(-c2nnc(N[C@@H]3CCCN(C)C3)c3c(Br)cccc23)c(O)c1 [Compound 34, (R)-2-(5-bromo-4-((1-methylpiperidin-3-yl)amino)phthalazin-1-yl)-5-methylphenol] | 8 nM |
| Cc1ccc(-c2nnc(N[C@@H]3CCCN(C)C3)c3ncccc23)c(O)c1 [Compound 38, (R)-5-methyl-2-(8-((1-methylpiperidin-3-yl)amino)pyrido[2,3-d]pyridazin-5-yl)phenol] | 12 nM |
| CN1CCC[C@@H](Nc2nnc(-c3ccc(C#N)cc3O)c3ccccc23)C1 [Compound 42, (R)-3-hydroxy-4-(4-((1-methylpiperidin-3-yl)amino)phthalazin-1-yl)benzonitrile] | 13 nM |
| Cc1ccc(-c2nnc(N[C@@H]3CCCN(C)C3)c3ccsc23)c(O)c1 [Compound 48, (R)-5-methyl-2-(4-((1-methylpiperidin-3-yl)amino)thieno[2,3-d]pyridazin-7-yl)phenol] | 2 nM |
| Cc1ccc(-c2nnc(N[C@@H]3CCCN(C)C3)c3ccncc23)c(O)c1 [Compound 49, (R)-5-methyl-2-(1-((1-methylpiperidin-3-yl)amino)pyrido[3,4-d]pyridazin-4-yl)phenol] | 9 nM |
| Cc1ccc(-c2nnc(N[C@@H]3CCCN(C)C3)c3cnccc23)c(O)c1 [Compound 50, (R)-5-methyl-2-(4-((1-methylpiperidin-3-yl)amino)pyrido[3,4-d]pyridazin-1-yl)phenol] | 1 nM |
| Cc1ccc2c(N[C@@H]3CCCN(C)C3)nnc(-c3ccc(C#N)cc3O)c2c1 [Compound 54, (R)-3-hydroxy-4-(7-methyl-4-((1-methylpiperidin-3-yl)amino)phthalazin-1-yl)benzonitrile] | 13 nM |
| Cc1ccc2c(-c3ccc(C#N)cc3O)nnc(N[C@@H]3CCCN(C)C3)c2c1 [Compound 55, (R)-3-hydroxy-4-(6-methyl-4-((1-methylpiperidin-3-yl)amino)phthalazin-1-yl)benzonitrile] | 4 nM |
| Cc1ccc(-c2nnc(N[C@@H]3CCCN(C)C3)c3cc(Br)ccc23)c(O)c1 [Compound 60, (R)-2-(6-bromo-4-((1-methylpiperidin-3-yl)amino)phthalazin-1-yl)-5-methylphenol] | 13 nM |
| Cc1ccc(-c2nnc(N[C@@H]3CCCN(C)C3)c3sccc23)c(O)c1 [Compound 70, (R)-5-methyl-2-(7-((1-methylpiperidin-3-yl)amino)thieno[2,3-d]pyridazin-4-yl)phenol] | 1 nM |
| CN1CCC[C@@H](Nc2nnc(-c3ccc(C4CC4)cc3O)c3ccccc23)C1 [Compound 72, (R)-5-cyclopropyl-2-(4-((1-methylpiperidin-3-yl)amino)phthalazin-1-yl)phenol] | 1 nM |
| CN1CCC[C@@H](Nc2nnc(-c3ccc(Br)cc3O)c3ccccc23)C1 [Compound 73, (R)-5-bromo-2-(4-((1-methylpiperidin-3-yl)amino)phthalazin-1-yl)phenol] | 1 nM |
